Laboratory results as given in US10092633B2, “Newly identified peptides for use in the induction of oral tolerance in young mammals” (NESTEC S.A., priority 2013, dated 2018).

Key:
[1] = test system: oral tolerance to β-lactoglobulin; conditions: previously identified as part of a longer peptide sequence in the earlier filing; cited from earlier work
HLA-DR = assay: peptides bound to HLA-DR on cells cultured with NAN-HA/BEBA-HA formula, isolated by immunoprecipitation and identified by LC-MS/MS; assay type: binding, human; conditions: U937 and Thp1 cells incubated 24 hours with BEBA-HA; immunoprecipitation with clone L243; nano-LC-MSMS
Description: In a set of experiments detailed in Example 1, the present inventors identified the peptide sequences of BLG responsible for the induction of oral tolerance towards milk proteins, in particular BLG. In a first step, using a cellular based assay, partially hydrolyzed infant formula NAN HA™ (otherwise known as BEBE HA™) from Nestlé, was incubated with human cells expressing the Major Histocompatibility Complex (MHC) class II receptor, HLA-DR. As the first step in the induction of oral tolerance, the HLA receptor presents peptide sequences to the T cells, thereby inducing tolerance. Thus, development of tolerance is largely dependent on the recognition of the peptide sequence by the MHC.
Thus, in the current invention, the human cells expressing HLA-DR were cultured in the presence of NAN-HA™ formula (which had been verified to be non-toxic for the cells), the peptides that bound to the HLA receptor were isolated by immunoprecipitation, and then identified by mass spectrometry and amino acid sequencing.
The Thp1 and U937 cells were incubated in 20 mL RPMI-1640 medium with L-Glutamine (Sigma) supplemented with 10% heat-inactivated FCS (Amimed, Bioconcept) and Penicillin/Streptomycin (Sigma) at a concentration of 1×10^6 cells/mL in a T175 cm^2 (Falcon) with respectively 1 ug/mL and 100 ug/mL of BEBA-HA (Nestlé, Lot# L02680742AP) for a 24 hours period at 37° C. in presence of 5% CO2. Cells were spun down and harvested to perform immunoprecipitation of MHC-peptide complexes.
Briefly, for each condition tested (control without BEBA-HA, sample with BEBA-HA for both cell lines), 2×10^7 cells were resuspended in ice cold TBS and washed three times. […]
Before MS analysis, HLA-DR peptides were desalted using either reversed-phase C18 (The Nest group, USA) or mixed-mode OASIS (Waters, USA) desalting columns as described in the manufacturer's manual. After desalting, peptides were analyzed by nano-LC-MSMS using an in-house Magic C18 column (150×0.075 mm) for peptide separation (2-35% Acetontril/0.1% formaic acid in 30 minutes) coupled to an Orbitrap XL instrument. […]

[2] = test system: BLG-specific IgE antibodies; assay: experimental mouse model of sensitization to BLG: gavage, then i.p. sensitization, BLG-specific IgE in serum; assay type: in vivo, BALB/cJ mice; conditions: gavage days 1, 2, 3, 8, 9 and 10 (0.22 μmole); i.p. native BLG on alum day 14; serum days 30-33; FIG. 1
Description: Mice were fed either native BLG or either synthetic peptide (84-106) or (25-107) by gavage on day 1, 2, 3, 8, 9 and 10. They were then sensitized by i.p. administration with native BLG on day 14. Serum IgE levels were measured between day 30 and 33.
Specific pathogen-free (SPF) BALB/cJ mice (3 to 4 weeks-old females, Centre d'Elevage René Janvier, Le Genest Saint-Isle, France) were housed in filtered cages under normal SPF husbandry conditions (autoclaved bedding and sterile water) and were acclimatized for two weeks before experiments. They were maintained on a diet deprived of animal protein, and in which BLG was not detected using specific sandwich immunoassays. All animal experiments were performed according to European Community rules of animal care, and with authorization 91-368 of the French Veterinary Services. […]
Groups of 6 or 7 mice were administered either 4 mg of native bovine BLG, or equivalent quantity (i.e. 0.22 μmole) of isolated synthetic BLG peptides. […]
The efficacy of mice sensitization was assessed by quantitative measurements of BLG-specific IgE antibodies on individual serum samples collected from the mice retro-orbital venous plexus under light anaesthesia (Isoflurane, Baxter) between days 30-33. Non-specific binding was determined using individual sera from 10 naive mice, and was deduced from the absorbance values measured with immune sera. […]

Substance | induction of oral tolerance [1] | recognition by and binding to HLA-DR (identified among HLA-DR bound peptides) (HLA-DR) | BLG-specific serum IgE level / tolerance induction compared to control (PBS) [2]
EVDDEALEK [peptide c, previously known tolerogenic BLG peptide, position 143-151, positive control] | inducers of oral tolerance | identified by this method | –
IDALNENK [peptide a, previously known tolerogenic BLG peptide, position 100-107, positive control] | inducers of oral tolerance | identified by this method | –
VLDTDY (SAEPEQ; UniProt P02754 126-131, looked up, fragment) [peptide b, previously known tolerogenic BLG peptide, position 110-115, positive control] | inducers of oral tolerance | identified by this method | –
peptide (84-106): synthetic peptide corresponding to the bovine BLG sequence numbers 84-106 (MW 2731 Da) (IDALNENKVLVLDTDYKKYLLFC; UniProt P02754 100-122, looked up, fragment) | – | – | tendency towards a lower level of IgE
